# Results reported in US20240000724A1, “Compositions and Methods for Treatment or Prevention of Oral Mucositis” (PATHWAYS BIOSCIENCE, LLC, priority 2015, published 2024).
# System: Nrf2 (HepG2 cells)
# Test: Nrf2 induction by PB201 analogs in HepG2 Nrf2/ARE promoter-luciferase reporter cells
# Format: cell-based, human
# Settings: 0-7 ug/mL, read 24 h after start of stimulation
# From the text: In this Example, the effects of compounds that are structurally related to 1,3-diphenyl-1,3-propanedione are investigated.
row,Structure (SMILES),Nrf2 activation
1,"O=C(c1ccccc1)C(Br)C(=O)c1ccccc1 [2-bromo-1,3-diphenyl-1,3-propanedione]",activated Nrf2
2,"O=C(CCCC(=O)c1ccccc1)c1ccccc1 [1,3-dibenzoylpropane]",activated Nrf2
